From ChEMBL document CHEMBL5260848, “Recent advancements in the development of bioactive pyrazoline derivatives” (Eur J Med Chem, 2020) come the findings set out here.

For assay [1], the target named is T1, Amine oxidase [flavin-containing] A (Homo sapiens, UniProt P21397).
T1 sequence (P21397 whole entry): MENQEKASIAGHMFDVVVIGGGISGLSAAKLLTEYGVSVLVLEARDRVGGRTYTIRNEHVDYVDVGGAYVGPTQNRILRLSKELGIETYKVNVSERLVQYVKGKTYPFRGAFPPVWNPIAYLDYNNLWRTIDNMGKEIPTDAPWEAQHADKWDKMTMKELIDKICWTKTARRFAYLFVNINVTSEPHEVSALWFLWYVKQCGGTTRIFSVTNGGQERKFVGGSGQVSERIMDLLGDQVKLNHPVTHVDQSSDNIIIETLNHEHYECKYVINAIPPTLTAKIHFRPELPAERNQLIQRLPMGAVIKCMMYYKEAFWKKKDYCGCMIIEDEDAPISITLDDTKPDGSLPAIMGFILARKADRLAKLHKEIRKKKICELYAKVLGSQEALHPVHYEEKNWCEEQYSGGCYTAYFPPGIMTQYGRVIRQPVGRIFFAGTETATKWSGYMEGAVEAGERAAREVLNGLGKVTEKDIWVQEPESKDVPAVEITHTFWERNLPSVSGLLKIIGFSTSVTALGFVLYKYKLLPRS

The species entered for assay [2] is Mus musculus. The experiment in a line: Antidepressant activity in mouse assessed as […] by forced swimming test. Type of assay: functional.
The species entered for assay [3] is Mus musculus. The experiment in a line: Antidepressant activity in mouse assessed as […] by tail suspension test. The assay is classed as functional.
Another assay has as its system Aspergillus fumigatus. Kind of assay: Antifungal activity against Aspergillus fumigatus incubated for 24 hrs by disc diffusion method. The assay is classed as functional. For orientation: In agar diffusion tests the substance spreads into inoculated agar from a disc or well.
In the next assay the test system is Bacillus subtilis. Kind of assay: microbe, parasite or virus in culture. The conditions noted are these: 24 h.
The subject of a further assay is Aspergillus flavus. Kind of assay: Antifungal activity against Aspergillus flavus incubated for 24 hrs by disc diffusion method. The assay is classed as functional.
The subject of the next assay is Escherichia coli. Kind of assay: Antibacterial activity against Escherichia coli incubated for 24 hrs by disc diffusion method. The assay is classed as functional.
For the next assay, the system named is Aspergillus niger. Kind of assay: Antifungal activity against Aspergillus niger incubated for 24 hrs by disc diffusion method. The assay is classed as functional.
The next assay concerns Candida albicans. The experiment in a line: microbe, parasite or virus in culture. To be noted: 24 h.
Assay [4] has as its system Mycobacterium tuberculosis. The experiment in a line: microbe, parasite or virus in culture. The conditions noted are these: 120 h.
The subject of the next assay is Pseudomonas aeruginosa. Kind of assay: microbe, parasite or virus in culture. To be noted: 24 h.
The subject of another assay is Staphylococcus aureus. The experiment in a line: microbe, parasite or virus in culture. To be noted: 24 h.

Values after ≈ are worked out from the molar mass of the structure shown.

As a reminder, the Ki is a measure of affinity in units of concentration, obtained from inhibition or displacement. The low end stands for a stronger hold on the target, the high end for a looser hold on the target.

On to `Cc1ccc(C2=NN(C(=S)Nc3ccccc3)C(c3ccc(F)cc3)C2)cc1` (configuration not stated), for which the Ki in [1] worked out at 0.1 nM. This lies in the sub-nanomolar range.

With `Clc1ccc(C2CC(c3cccc4ccccc34)=NN2)cc1` (configuration not stated), the Time in the assay listed under Mus musculus [2] was 43.33 s; in the assay listed under Mus musculus [3], 29.67 s.

Regarding `O=C(NNS(=O)(=O)c1ccc(F)cc1F)N1N=C(c2ccccc2)CC1c1ccccc1` (configuration not stated), the MIC in the assay on Aspergillus fumigatus, against Bacillus subtilis, in the assay with Aspergillus flavus, with Escherichia coli, in the assay on Aspergillus niger and in the assay on Candida albicans was 25 µg/mL (≈ 54.8 µM) in each case. Further, the MIC in assay [4] was determined as 0.8 µg/mL (≈ 1.75 µM); in the assay on Pseudomonas aeruginosa it was 25 µg/mL (≈ 54.8 µM); in the assay with Staphylococcus aureus it was 25 µg/mL (≈ 54.8 µM).

`Clc1ccc(C2=NNC(c3ccco3)C2)cc1` (configuration not stated): the Time in the assay listed under Mus musculus [2] and in the assay listed under Mus musculus [3] was 21.17 s throughout.

Regarding `CSc1ccc(C2CC(c3ccccc3)=NN2C(=O)NNS(=O)(=O)c2ccccc2)cc1` (configuration not stated), the MIC in the assay on Aspergillus fumigatus, in the assay on Bacillus subtilis, against Aspergillus flavus, with Escherichia coli, against Aspergillus niger and with Candida albicans was 25 µg/mL (≈ 53.6 µM) in each case. For the same molecule, the MIC in [4] worked out at 0.8 µg/mL (≈ 1.71 µM); in the assay with Pseudomonas aeruginosa it was 25 µg/mL (≈ 53.6 µM); in the assay on Staphylococcus aureus, 25 µg/mL (≈ 53.6 µM).

Consider `O=C(NNS(=O)(=O)c1ccc(F)cc1)N1N=C(c2ccc(F)cc2)CC1c1ccc(F)cc1` (configuration not stated), for which the MIC in the assay on Aspergillus fumigatus, in the assay with Bacillus subtilis, in the assay with Aspergillus flavus, against Escherichia coli, against Aspergillus niger and with Candida albicans was 25 µg/mL (≈ 52.7 µM) throughout. Moreover, the MIC in assay [4] amounted to 0.8 µg/mL (≈ 1.69 µM); against Pseudomonas aeruginosa, 25 µg/mL (≈ 52.7 µM); with Staphylococcus aureus it was 25 µg/mL (≈ 52.7 µM).

On to `COc1ccc(C2CC(c3ccccc3)=NN2C(=O)NNS(=O)(=O)c2ccc(F)cc2F)cc1` (configuration not stated), for which the MIC with Aspergillus fumigatus, against Bacillus subtilis, in the assay with Aspergillus flavus, with Escherichia coli, against Aspergillus niger and in the assay with Candida albicans was 25 µg/mL (≈ 51.4 µM) in each case. Also, the MIC turned out to be 0.8 µg/mL (≈ 1.64 µM) in assay [4], 25 µg/mL (≈ 51.4 µM) in the assay on Pseudomonas aeruginosa and 25 µg/mL (≈ 51.4 µM) against Staphylococcus aureus.

As for `c1ccc(C2=NNC(c3cccs3)C2)nc1` (configuration not stated), the Time in the assay listed under Mus musculus [2] and in the assay filed under Mus musculus [3] was 21.17 s throughout.

For the molecule `O=C(NNS(=O)(=O)c1ccc(F)cc1F)N1N=C(c2ccccc2)CC1c1ccc(Br)cc1` (configuration not stated), the MIC with Aspergillus fumigatus, against Bacillus subtilis, in the assay on Aspergillus flavus, against Escherichia coli, with Aspergillus niger and in the assay with Candida albicans was 25 µg/mL (≈ 46.7 µM) each time. Further, the MIC in assay [4] was 0.8 µg/mL (≈ 1.49 µM); against Pseudomonas aeruginosa it was 25 µg/mL (≈ 46.7 µM); with Staphylococcus aureus, 25 µg/mL (≈ 46.7 µM).

Turning to `O=C(NNS(=O)(=O)c1ccc(F)cc1)N1N=C(c2ccccc2)CC1c1ccc(Cl)cc1` (configuration not stated), the MIC in the assay with Aspergillus fumigatus, against Bacillus subtilis, with Aspergillus flavus, with Escherichia coli, in the assay on Aspergillus niger and against Candida albicans was 25 µg/mL (≈ 52.9 µM) in each case. In addition, the MIC in assay [4] came to 0.8 µg/mL (≈ 1.69 µM); against Pseudomonas aeruginosa, 25 µg/mL (≈ 52.9 µM); with Staphylococcus aureus, 25 µg/mL (≈ 52.9 µM).

Regarding `Cc1ccc(C2CC(c3ccccc3)=NN2C(=O)NNS(=O)(=O)c2ccc(F)cc2F)cc1` (configuration not stated), the MIC in the assay on Aspergillus fumigatus, against Bacillus subtilis, against Aspergillus flavus, in the assay on Escherichia coli, in the assay with Aspergillus niger and against Candida albicans was 25 µg/mL (≈ 53.1 µM) in each case. Further, the MIC in [4] amounted to 0.8 µg/mL (≈ 1.7 µM); against Pseudomonas aeruginosa, 25 µg/mL (≈ 53.1 µM); in the assay on Staphylococcus aureus it was 25 µg/mL (≈ 53.1 µM).

As to `COc1ccc(C2CC(c3cccc4ccccc34)=NN2)cc1OC` (configuration not stated), the Time is 21.17 s in the assay filed under Mus musculus [2] and 36.83 s in the assay filed under Mus musculus [3].

On to `Clc1ccc(C2=NNC(c3cccs3)C2)cc1` (configuration not stated), for which the Time in the assay filed under Mus musculus [2] and in the assay listed under Mus musculus [3] was 21.17 s throughout.

Turning to `O=C(NNS(=O)(=O)c1ccc(F)cc1)N1N=C(c2ccccc2)CC1c1ccc(F)cc1` (configuration not stated), the MIC in the assay on Aspergillus fumigatus, against Bacillus subtilis, against Aspergillus flavus, against Escherichia coli, in the assay on Aspergillus niger and in the assay on Candida albicans was 25 µg/mL (≈ 54.8 µM) throughout. In addition, the MIC in assay [4] came to 0.8 µg/mL (≈ 1.75 µM); with Pseudomonas aeruginosa, 25 µg/mL (≈ 54.8 µM); against Staphylococcus aureus, 25 µg/mL (≈ 54.8 µM).

Turning to `COc1ccc(C2CC(c3ccccc3)=NN2C(=O)NNS(=O)(=O)c2ccc(F)cc2)cc1` (configuration not stated), the MIC with Aspergillus fumigatus, against Bacillus subtilis, in the assay on Aspergillus flavus, against Escherichia coli, in the assay on Aspergillus niger and in the assay with Candida albicans was 25 µg/mL (≈ 53.4 µM) each time. Besides, the MIC was determined as 0.8 µg/mL (≈ 1.71 µM) in assay [4], 25 µg/mL (≈ 53.4 µM) against Pseudomonas aeruginosa and 25 µg/mL (≈ 53.4 µM) against Staphylococcus aureus.
